Laboratory results from patent US6613760B1, “Indole derivatives and their use as MCP-1 receptor antagonists” (AstraZeneca AB, priority 1999, dated 2003).

Tests used:
[1] = target: T1, hMCP-1 receptor (Homo sapiens, UniProt P41597); assay: 125I MCP-1 binding to human peripheral blood mononuclear cells (PBMCs); conditions: 100 pM 125I-labeled MCP-1, 37° C. 60 minutes
T1 construct: endogenous in cells; host or cells: human PBMCs from fresh donor blood (whole cells)
T1 sequence (P41597 1-360 isoform P41597-2): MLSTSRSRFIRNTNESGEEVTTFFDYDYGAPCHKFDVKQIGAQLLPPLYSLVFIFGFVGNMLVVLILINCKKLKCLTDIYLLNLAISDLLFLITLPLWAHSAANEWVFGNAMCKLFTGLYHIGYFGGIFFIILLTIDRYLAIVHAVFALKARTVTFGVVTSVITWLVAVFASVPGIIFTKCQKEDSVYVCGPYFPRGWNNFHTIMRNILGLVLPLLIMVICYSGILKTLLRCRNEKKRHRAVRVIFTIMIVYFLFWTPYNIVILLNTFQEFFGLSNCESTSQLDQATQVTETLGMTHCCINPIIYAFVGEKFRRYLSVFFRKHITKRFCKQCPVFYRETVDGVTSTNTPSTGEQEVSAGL
Method: Fresh human blood (200 ml) was obtained from volunteer donors, collected into sodium citrate anticoagulant to give a final concentration of 0.38%. The blood was mixed with Sedimentation Buffer and incubated at 37° C. for 20 minutes. The supernatant was collected and centrifuged at 1700 rpm for 5 minutes (Sorvall RT6000D). The pellet obtained was resuspended in 20 ml RPMI/BSA (1 mg/ml) and 4×5 mls of cells were carefully layered over 4×5 mls of Lymphoprepa (Nycomed) in 15 ml centrifuge tubes. Tubes were spun at 1700 rpm for 30 minutes (Sorvall RT6000D) and the resultant layer of cells was removed and transferred to 50 ml Falcon tubes. The cells were washed twice in Lysis Buffer to remove any remaining red blood cells followed by 2 washes in RPMI/BSA. Cells were resuspended in 5 mls of Binding Buffer. Cell number was measured on a Coulter counter and additional binding buffer was added to give a final concentration of 1.25×10^7 PBMCs/ml. […]
Test compound potency was determined by assay in duplicate using six point dose-response curves and IC50 concentrations were determined.

[2] = test system: THP-1 cells; assay: hMCP-1 mediated chemotaxis of THP-1 cells; type: cell-based, human; conditions: biphasic response
Method: In vitro chemotaxis assays were performed using the human monocytic cell line THP-1. Cell migration through polycarbonate membranes was measured by enumerating those passing through either directly by Coulter counting or indirectly by use of a colourimetric viability assay measuring the cleavage of a tetrazolium salt by the mitochondrial respiratory chain (Scudiero D. A. et al. 1988, Cancer Res., 48, 4827-4833).
Chemoattractants were introduced into a 96-well microtitre plate which forms the lower well of a chemotaxis chamber fitted with a PVP-free 5 μm poresize polycarbonate adhesive framed filter membrane (NeuroProbe MB series, Cabin John, Md. 20818. USA) according to the manufacturer's instructions. […] The plate was incubated at 37° C. for 3 h and the absorbance of the soluble formazan product was read on a microtitre plate reader at 450 nm. The data was input into a spreadsheet, corrected for any random migration in the absence of chemoattractant and the average absorbance values, standard error of the mean, and significance tests were calculated. hMCP-1 induced concentration dependent cell migration with a characteristic biphasic response, maximal […]. […]

[3] = target: T2, MCP-1 receptor B (CCR2B) (Homo sapiens, UniProt P41597); assay: hMCP-1 receptor binding assay, 125I MCP-1 on CHO-CCR2B cell membranes
T2 construct: expressed in transfected cells; host or cells: CHO-K1 (clone 7, CHO-CCR2B), membrane fragments
T2 sequence (P41597 1-360 isoform P41597-2): T1 sequence (P41597 1-360 isoform P41597-2)
From the text: The MCP-1 receptor B (CCR2B) cDNA was cloned by PCR from THP-1 cell RNA using suitable oligonucleotide primers based on the published MCP-1 receptor sequences (Charo et al., 1994, Proc. Natl. Acad. Sci. USA, 91, 2752). The resulting PCR products were cloned into vector PCR-II™ (InVitrogen, San Diego, Calif.). Error free CCR2B cDNA was subcloned as a Hind III-Not I fragment into the eukaryotic expression vector pCDNA3 (InVitrogen) to generate pCDNA3/CC-CKR2A and pCDNA3/CCR2B respectively.
Linearised pCDNA3/CCR2B DNA was transfected into CHO-K1 cells by calcium phosphate precipitation (Wigler et al., 1979, Cell, 16, 777). Transfected cells were selected by the addition of Geneticin Sulphate (G418, Gibco BRL) at 1 mg/ml, 24 hours after the cells had been transfected. Preparation of RNA and Northern blotting were carried out as described previously (Needham et al., 1995, Prot. Express. Purific., 6. 134). CHO-K1 clone 7 (CHO-CCR2B) was identified as the highest MCP-1 receptor B expressor.
CHO-CCR2B cells were grown in DMEM supplemented with 10% foetal calf serum, 2 mM glutamine. 1×Non-Essential Amino Acids. 1×Hypoxanthine and Thymidine Supplement and Penicillin-Streptomycin (at 50 μg streptomycin/ml, Gibco BRL). Membrane fragments were prepared using cell lysis/differential centrifugation methods as described previously (Siciliano et al., 1990, J. Biol. Chem., 265, 19658). […]

[4] = test system: THP-1 cells; assay: MCP-1 mediated calcium flux in THP-1 cells; type: cell-based, human; conditions: stimulation of THP-1 cells with hMCP-1; read-out: EC50 of rise in [Ca2+]i
Method: The human monocytic cell line THP-1 as grown in a synthetic cell culture medium RPMI 1640 supplemented with 10% foetal calf serum, 6 mM glutamine and Penicillin-Streptomycin (at 50 μg streptomycin/ml, Gibco BRL). THP-1 cells were washed in HBSS (lacking Ca^2+ and Mg^2+)+1 mg/ml BSA and resuspended in the same buffer at a density of 3×10^6 cells/ml. The cells were then loaded with […] FURA-2/AM for 30 min at 37° C., washed twice in HBSS, and resuspended at 1×10^6 cells/mil. THP-1 cell suspension (0.9 ml) was added to a 5 ml disposable cuvette containing a magnetic stirrer bar and 2.1 ml of prewarmed (37° C.) HBSS containing 1 mg/ml BSA, 1 mM MgCl, and 2 mM CaCl2. The cuvette was placed in a fluorescence spectrophotometer (Perkin Elmer, Norwalk. Conn.) and preincubated for 4 min at 37° C. with stirring. Fluorescence was recorded over 70 sec and cells were stimulated by addition of hMCP-1 to the cuvette after 10 sec. [Ca^2+]i was measured by excitation at 340 nm and 380 nm alternately and subsequent measurement of the intensity of the fluorescence emission at 510 nm.
where the Kd for FURA-2 Ca^2+ complex at 37° C. was taken to be 224 nm. […]

| Compound | IC50 [1] [nM] | concentration of maximal cell migration [2] | IC50 ([3]; cold competition with 100 pM 125I-labeled MCP-1, CHO-CCR2B membrane fragments) [nM] | Kd ([3]; equilibrium binding, CHO-CCR2B membrane fragments) [nM] | EC50 [4] [nM] |
| --- | --- | --- | --- | --- | --- |
| CS(=O)(=O)NCCNC(=O)c1cccc2c1cc(C(=O)O)n2Cc1ccc(Cl)c(Cl)c1 [Compound 9] | 640 |  |  |  |  |
| MCP-1: Human Monocyte Chemoattractant Protein-1, a C—C chemokine, ligand of the MCP-1 (CCR2) receptor |  | 0.5-1.0 nm | 0.11 | 0.12 | ~2 |
